Data from patent publication US11098010B2 (priority 2017, dated 2021).
Structures can show the parent of a compound that is named as a salt.

These compounds were tested on HBV rcDNA in HepDE19 cells (assay: HepDE19 assay with bDNA quantitation of HBV rcDNA). Details: HepDE19 cells, inhibition of rcDNA formation, 7 day incubation, top concentration 25 μM; read-out: DE-19 bDNA EC50.
Assay type: cell-based, hepatitis B virus (HBV)

| SMILES | EC50 |
| --- | --- |
| CO[C@@H]1Cc2c(C(=O)Nc3ccc(F)c(Cl)c3)ccc(F)c2[C@H]1NC(=O)OCc1ccccn1 [Compound 178, O-Pyridin-2-ylmethyl, N-((1R,2R)-4-((3-chloro-4-fluorophenyl)carbamoyl)-7-fluoro-2-methoxy-2,3-dihydro-1H-inden-1-yl) carbamate] | 0.04 µM |

Same assay, conditions: Hepatitis B virus, HepDE19, 168 h, HepDE19 cells, inhibition of rcDNA formation, 7 day incubation, top concentration 25 μM; read-out: DE-19 bDNA EC50

| SMILES | EC50 |
| --- | --- |
| O=C(N[C@H]1CCc2c(C(=O)Nc3ccc(F)c(Cl)c3)ccc(F)c21)O[C@@H]1CCOC1 [Compound 170, O—(R)-Tetrahydrofuran-3-yl, N—((S)-4-((3-chloro-4-fluorophenyl)carbamoyl)-7-fluoro-2,3-dihydro-1H-inden-1-yl) carbamate] | 0.26 µM |
| Cn1ccc(CCC(=O)N[C@H]2CCc3c(C(=O)Nc4ccc(F)c(Cl)c4)ccc(F)c32)n1 [Compound 171, (S)—N-(3-Chloro-4-fluorophenyl)-7-fluoro-1-(3-(1-methyl-1H-pyrazol-3-yl)propanamido)-2,3-dihydro-1H-indene-4-carboxamide] | 0.13 µM |
| O=C(Nc1ccc(F)c(Cl)c1)c1ccc(F)c2c1CC[C@@H]2NC(=O)C1CC1 [Compound 179, (S)—N-(3-Chloro-4-fluorophenyl)-1-(cyclopropanecarboxamido)-7-fluoro-2,3-dihydro-1H-indene-4-carboxamide] | 0.14 µM |
| O=C(N[C@H]1CCc2c(C(=O)Nc3ccc(F)c(Cl)c3)ccc(F)c21)O[C@H]1CCOC1 [Compound 181, O—(S)-Tetrahydrofuran-3-yl, N—((S)-4-((3-chloro-4-fluorophenyl)carbamoyl)-7-fluoro-2,3-dihydro-1H-inden-1-yl) carbamate] | 0.15 µM |
| COCCS(=O)(=O)N[C@H]1CCc2c(C(=O)Nc3ccc(F)c(Cl)c3)ccc(F)c21 [Compound 182, (S)—N-(3-Chloro-4-fluorophenyl)-7-fluoro-1-((2-methoxyethyl)sulfonamido)-2,3-dihydro-1H-indene-4-carboxamide] | 0.59 µM |
| O=C(Nc1ccc(F)c(Cl)c1)c1ccc(F)c2c1CC[C@@H]2Nc1ncc(O)cn1 [Compound 186, (S)-N-(3-chloro-4-fluorophenyl)-7-fluoro-1-((5-hydroxypyrimidin-2-yl)amino)-2,3-dihydro-1H-indene-4-carboxamide] | 1.6 µM |
| O=C(N[C@H]1CCc2c(C(=O)Nc3ccc(F)c(Cl)c3)ccc(F)c21)OCc1nc[nH]n1 [Compound 195, O-(1H-1,2,4-Triazol-3-yl)methyl, N—(S)-(4-((3-chloro-4-fluorophenyl)carbamoyl)-7-fluoro-2,3-dihydro-1H-inden-1-yl) carbamate] | 0.1 µM |
| O=C1CC[C@@H](OC(=O)N[C@H]2CCc3c(C(=O)Nc4ccc(F)c(Cl)c4)ccc(F)c32)CN1 [Compound 199, O—(R)-6-Oxopiperidin-3-yl, N—((S)-4-((3-chloro-4-fluorophenyl)carbamoyl)-7-fluoro-2,3-dihydro-1H-inden-1-yl)carbamate] | 0.25 µM |
| O=C1CC[C@H](OC(=O)N[C@H]2CCc3c(C(=O)Nc4ccc(F)c(Cl)c4)ccc(F)c32)CN1 [Compound 200, O—(S)-6-Oxopiperidin-3-yl, N—((S)-4-((3-chloro-4-fluorophenyl)carbamoyl)-7-fluoro-2,3-dihydro-1H-inden-1-yl) carbamate] | 0.43 µM |

Same assay, conditions: Hepatitis B virus, HepDE19, 168 h, read-out: DE-19 bDNA EC50 (μM), HepDE19 cells, inhibition of rcDNA formation, 7 day incubation, top concentration 25 μM

| SMILES | EC50 |
| --- | --- |
| O=C(N[C@H]1CCc2c(C(=O)Nc3ccc(F)c(Cl)c3)ccc(F)c21)OCc1cccc(C(F)(F)F)n1 [Compound 168, O-(6-(Trifluoromethyl)pyridin-2-yl)methyl, N—(S)-(4-((3-chloro-4-fluorophenyl)carbamoyl)-7-fluoro-2,3-dihydro-1H-inden-1-yl) carbamate] | 0.62 µM |
| O=C(N[C@H]1CCc2c(C(=O)Nc3ccc(F)c(Cl)c3)ccc(F)c21)OCc1ccc(C(F)(F)F)cn1 [Compound 169, O-(5-(Trifluoromethyl)pyridin-2-yl)methyl, N—(S)-(4-((3-chloro-4-fluorophenyl)carbamoyl)-7-fluoro-2,3-dihydro-1H-inden-1-yl) carbamate] | 2.2 µM |
| N#Cc1ccc(COC(=O)N[C@H]2CCc3c(C(=O)Nc4ccc(F)c(Cl)c4)ccc(F)c32)nc1 [Compound 172, O-(5-Cyanopyridin-2-yl)methyl, N—(S)-(4-((3-chloro-4-fluorophenyl)carbamoyl)-7-fluoro-2,3-dihydro-1H-inden-1-yl) carbamate] | 0.19 µM |
| Cc1nccnc1COC(=O)N[C@H]1CCc2c(C(=O)Nc3ccc(F)c(Cl)c3)ccc(F)c21 [Compound 173, O-(3-Methylpyrazin-2-yl)methyl, N—(S)-(4-((3-chloro-4-fluorophenyl)carbamoyl)-7-fluoro-2,3-dihydro-1H-inden-1-yl) carbamate] | 0.12 µM |
| CC(=O)N1CCC(COC(=O)N[C@H]2CCc3c(C(=O)Nc4ccc(F)c(Cl)c4)ccc(F)c32)CC1 [Compound 174, O-(1-Acetylpiperidin-4-yl)methyl, N—(S)-(4-((3-chloro-4-fluorophenyl)carbamoyl)-7-fluoro-2,3-dihydro-1H-inden-1-yl) carbamate] | 0.87 µM |
| O=C(N[C@H]1CCc2c(C(=O)Nc3ccc(F)c(Cl)c3)ccc(F)c21)OCC1CCN(C(=O)CO)CC1 [Compound 175, O-(1-(2-Hydroxyacetyl)piperidin-4-yl)methyl, N—(S)-(4-((3-chloro-4-fluorophenyl)carbamoyl)-7-fluoro-2,3-dihydro-1H-inden-1-yl) carbamate] | 0.96 µM |
| CNC(=O)N1CCC(COC(=O)N[C@H]2CCc3c(C(=O)Nc4ccc(F)c(Cl)c4)ccc(F)c32)CC1 [Compound 176, O-(1-(Methylcarbamoyl)piperidin-4-yl)methyl, N—(S)-(4-((3-chloro-4-fluorophenyl)carbamoyl)-7-fluoro-2,3-dihydro-1H-inden-1-yl) carbamate] | 0.64 µM |
| O=C(N[C@H]1CCc2c(C(=O)Nc3ccc(F)c(Cl)c3)ccc(F)c21)OCC1CS(=O)(=O)CCN1 (stereo partly drawn) [Compound 177, O-(1,1-Dioxidothiomorpholin-3-yl)methyl, N—((S)-4-((3-chloro-4-fluorophenyl)carbamoyl)-7-fluoro-2,3-dihydro-1H-inden-1-yl) carbamate Hydrochloride] | 0.5 µM |
| O=C(N[C@H]1CCc2c(C(=O)Nc3ccc(F)c(Cl)c3)ccc(F)c21)OC[C@@H]1COCCN1 [Compound 180, O—((S)-Morpholin-3-yl)methyl, N—((S)-4-((3-chloro-4-fluorophenyl)carbamoyl)-7-fluoro-2,3-dihydro-1H-inden-1-yl) carbamate Hydrochloride] | 0.2 µM |
| O=C(Nc1ccc(F)c(Cl)c1)c1ccc(F)c2c1CC[C@@H]2NS(=O)(=O)c1ccccc1 [Compound 183, (S)—N-(3-Chloro-4-fluorophenyl)-7-fluoro-1-(phenylsulfonamido)-2,3-dihydro-1H-indene-4-carboxamide] | 0.65 µM |
| O=C(Nc1ccc(F)c(Cl)c1)c1ccc(F)c2c1CC[C@@H]2NS(=O)(=O)c1ccccn1 [Compound 184, (S)—N-(3-Chloro-4-fluorophenyl)-7-fluoro-1-(pyridine-2-sulfonamido)-2,3-dihydro-1H-indene-4-carboxamide Hydrochloride] | 0.66 µM |
| COCC(=O)N1CCC(COC(=O)N[C@H]2CCc3c(C(=O)Nc4ccc(F)c(Cl)c4)ccc(F)c32)CC1 [Compound 185, O-(1-(2-Methoxyacetyl)piperidin-4-yl)methyl, N—(S)-(4-((3-chloro-4-fluorophenyl)carbamoyl)-7-fluoro-2,3-dihydro-1H-inden-1-yl) carbamate] | 0.37 µM |
| O=C(N[C@H]1CCc2c(C(=O)Nc3ccc(F)c(Cl)c3)ccc(F)c21)OCc1cc[nH]n1 [Compound 193, O-(1H-Pyrazol-3-yl)methyl, N—(S)-(4-((3-chloro-4-fluorophenyl)carbamoyl)-7-fluoro-2,3-dihydro-1H-inden-1-yl) carbamate] | 0.06 µM |
| Cn1ccc(CNC(=O)N[C@H]2CCc3c(C(=O)Nc4ccc(F)c(Cl)c4)ccc(F)c32)n1 [Compound 194] | 0.16 µM |
| O=C(Nc1ccc(F)c(Cl)c1)c1ccc(F)c2c1CC[C@@H]2Nc1ccncn1 [Compound 196, (S)—N-(3-Chloro-4-fluorophenyl)-7-fluoro-1-(pyrimidin-4-ylamino)-2,3-dihydro-1H-indene-4-carboxamide] | 0.63 µM |
| COc1ccc(Cn2ccc3cnc(N[C@H]4CCc5c(C(=O)Nc6ccc(F)c(Cl)c6)ccc(F)c54)nc32)cc1 [Compound 197, (S)—N-(3-Chloro-4-fluorophenyl)-7-fluoro-1-((7-(4-methoxybenzyl)-7H-pyrrolo[2,3-d]pyrimidin-2-yl)amino)-2,3-dihydro-1H-indene-4-carboxamide] | 1.2 µM |
| O=C1CCC[C@H](COC(=O)N[C@H]2CCc3c(C(=O)Nc4ccc(F)c(Cl)c4)ccc(F)c32)N1 [Compound 198, O—((R)-6-Oxopiperidin-2-yl)methyl, N—((S)-4-((3-chloro-4-fluorophenyl)carbamoyl)-7-fluoro-2,3-dihydro-1H-inden-1-yl) carbamate] | 0.22 µM |

Same assay, conditions: read-out: DE-19 bDNA EC50; HepDE19 cells, inhibition of rcDNA formation, 7 day incubation, top concentration 25 μM

| SMILES | EC50 |
| --- | --- |
| COC(=O)NC1COc2c(C(=O)Nc3ccc(F)c(Cl)c3)ccc(F)c21 (stereo not shown) [Compound 187, O-Methyl, N-(7-((3-chloro-4-fluorophenyl)carbamoyl)-4-fluoro-2,3-dihydrobenzofuran-3-yl) carbamate] | 23 µM |
| COC(=O)NC1COc2c(C(=O)Nc3ccc(F)c(Cl)c3)ccc(F)c21 (stereo not shown) [Compound 188, O-Methyl, N-(7-((3-chloro-4-fluorophenyl)carbamoyl)-4-fluoro-2,3-dihydrobenzofuran-3-yl) carbamate] | 5.3 µM |
| COC(=O)NC1COc2c(C(=O)Nc3ccc(F)c(C)c3)ccc(F)c21 (stereo not shown) [Compound 201, O-Methyl, N-(4-fluoro-7-((4-fluoro-3-methylphenyl)carbamoyl)-2,3-dihydrobenzofuran-3-yl) carbamate] | 5.5 µM |
| COC(=O)NC1COc2c(C(=O)Nc3ccc(F)c(C)c3)ccc(F)c21 (stereo not shown) [Compound 202, O-Methyl, N-(4-fluoro-7-((4-fluoro-3-methylphenyl)carbamoyl)-2,3-dihydrobenzofuran-3-yl) carbamate] | 0.42 µM |
